pKi: −log10 of the molar value. Where two headings read alike, the source gives them in different places.

Assay [1] has as its target T1, human recombinant 5-HT transporter (SERT) (Homo sapiens, UniProt P31645).
T1 construct: host or cells: CHO-S / SERT (h), cell membrane homogenates
Nature of the assay: biochemical. Conditions: for inhibition at 0.2 µM / inhibition at 0.1 µM: read-out: SERT % inhibition. In kind it is binding.

Assay [2] deals with T2, human full-length recombinant serotonin 5-HT2A receptors (Homo sapiens, UniProt P28223).
T2 construct: human full-length recombinant serotonin 5-HT2A receptors expressed in HEK-293E cells
T2 sequence (P28223 whole entry): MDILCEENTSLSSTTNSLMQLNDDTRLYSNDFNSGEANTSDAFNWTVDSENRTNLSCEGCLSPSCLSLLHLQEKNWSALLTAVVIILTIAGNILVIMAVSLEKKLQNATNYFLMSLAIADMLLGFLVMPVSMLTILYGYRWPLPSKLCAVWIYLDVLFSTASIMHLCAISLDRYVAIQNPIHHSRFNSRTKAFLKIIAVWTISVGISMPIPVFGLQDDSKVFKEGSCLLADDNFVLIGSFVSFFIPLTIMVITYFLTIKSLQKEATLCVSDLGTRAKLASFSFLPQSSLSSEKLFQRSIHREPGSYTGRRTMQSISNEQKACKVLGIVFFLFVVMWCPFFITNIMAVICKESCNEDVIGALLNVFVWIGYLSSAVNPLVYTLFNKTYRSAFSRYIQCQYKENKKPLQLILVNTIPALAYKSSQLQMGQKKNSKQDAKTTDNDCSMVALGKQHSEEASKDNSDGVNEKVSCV
Nature of the assay: biochemical. Particulars: for inhibition at 0.1 µM: read-out: 5-HT2A % inhibition. In kind it is binding.

For assay [3], the target named is human recombinant dopamine D2 short receptor (Homo sapiens, UniProt P14416). The assay can be described thus: Dopamine D2 receptor binding, [3H]7-OH-DPAT displacement. Conditions: for inhibition at 0.1 µM: inhibition at 100 nM, NI = no inhibition, read-out: D2 % inhibition.
Sequence of human recombinant dopamine D2 short receptor (P14416 1-414 isoform P14416-2): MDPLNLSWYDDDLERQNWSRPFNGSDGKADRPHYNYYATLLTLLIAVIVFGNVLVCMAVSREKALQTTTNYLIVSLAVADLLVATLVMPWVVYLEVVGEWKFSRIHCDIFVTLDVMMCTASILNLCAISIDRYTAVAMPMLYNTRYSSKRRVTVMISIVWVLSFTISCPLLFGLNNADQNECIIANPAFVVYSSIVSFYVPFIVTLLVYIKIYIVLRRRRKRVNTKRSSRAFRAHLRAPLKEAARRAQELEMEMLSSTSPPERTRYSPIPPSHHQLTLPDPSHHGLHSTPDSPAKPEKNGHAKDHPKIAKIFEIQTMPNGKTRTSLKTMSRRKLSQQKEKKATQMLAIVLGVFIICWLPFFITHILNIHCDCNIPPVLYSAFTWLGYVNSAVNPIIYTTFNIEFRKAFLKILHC
Assay [4] addresses human recombinant dopamine D1 receptor (Homo sapiens, UniProt P21728). The assay can be described thus: Dopamine D1 receptor binding, [3H]SCH 23390 displacement. Conditions: for inhibition at 0.1 µM: read-out: D1 % inhibition.
Setting [5] is: inhibition at 100 nM, NI = no inhibition.

Sequence of human recombinant dopamine D1 receptor (P21728 whole entry): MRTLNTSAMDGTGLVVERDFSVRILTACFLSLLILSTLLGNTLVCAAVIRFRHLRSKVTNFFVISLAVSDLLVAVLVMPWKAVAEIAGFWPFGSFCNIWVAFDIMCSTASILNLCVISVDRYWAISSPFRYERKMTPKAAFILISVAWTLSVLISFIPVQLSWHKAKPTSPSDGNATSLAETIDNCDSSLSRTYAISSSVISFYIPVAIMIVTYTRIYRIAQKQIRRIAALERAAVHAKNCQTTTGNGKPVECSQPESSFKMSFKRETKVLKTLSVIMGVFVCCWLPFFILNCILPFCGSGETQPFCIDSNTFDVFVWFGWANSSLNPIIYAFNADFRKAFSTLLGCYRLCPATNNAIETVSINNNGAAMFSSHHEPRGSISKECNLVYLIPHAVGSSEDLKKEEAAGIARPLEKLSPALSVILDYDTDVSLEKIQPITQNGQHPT
T1 sequence (P31645 whole entry): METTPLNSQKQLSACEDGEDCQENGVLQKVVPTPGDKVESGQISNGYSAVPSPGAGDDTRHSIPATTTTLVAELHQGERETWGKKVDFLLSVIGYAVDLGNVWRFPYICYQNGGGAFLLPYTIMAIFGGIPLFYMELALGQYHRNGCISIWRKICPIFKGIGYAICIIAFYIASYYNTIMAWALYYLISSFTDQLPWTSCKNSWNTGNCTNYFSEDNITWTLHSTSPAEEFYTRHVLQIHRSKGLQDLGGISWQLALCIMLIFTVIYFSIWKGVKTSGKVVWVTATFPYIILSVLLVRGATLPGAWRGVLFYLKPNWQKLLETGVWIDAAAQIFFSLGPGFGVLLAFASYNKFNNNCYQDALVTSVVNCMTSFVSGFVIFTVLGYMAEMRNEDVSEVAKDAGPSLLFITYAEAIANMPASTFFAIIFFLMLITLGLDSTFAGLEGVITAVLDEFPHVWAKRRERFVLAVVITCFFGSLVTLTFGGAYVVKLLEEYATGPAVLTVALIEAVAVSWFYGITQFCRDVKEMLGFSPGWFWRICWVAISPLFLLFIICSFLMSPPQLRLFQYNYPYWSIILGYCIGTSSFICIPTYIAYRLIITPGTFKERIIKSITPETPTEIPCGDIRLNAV

The term inhibition denotes how much of the control response was suppressed. As for `O=C1CN2c3c(cccc3[C@@H]3CN(CCCO)CC[C@@H]32)N1` [compound 22, (6bR,10aS)-8-(3-Hydroxypropyl)-6b,7,8,9,10,10a-hexahydro-1H-pyrido[3′,4′:4,5]pyrrolo[1,2,3-de]quinoxalin-2(3H)-one], the inhibition at 0.2 µM in assay [1] is under 0%. Also, the inhibition at 0.1 µM in assay [2] is 8%; in assay [3], under 0%; in assay [4] (setting [5]), under 0%.

On to `CC1C(=O)Nc2cccc3c2N1[C@H]1CCN(CCCOc2ccc(F)cc2)C[C@@H]31` (stereo partly drawn) [compound 51, (6bR,10aS)-8-(3-(4-Fluorophenoxy)propyl)-1-methyl-6b,7,8,9,10,10a-hexahydro-1H-pyrido[3′,4′:4,5]-pyrrolo[1,2,3-de]quinoxalin-2(3H)-one], for which the inhibition at 0.1 µM was under 0% in assay [1], 88% in assay [2], 49% in assay [3] and 26% in assay [4] (setting [5]).

For `O=C1CN2c3c(cccc3[C@@H]3CN(CCCOc4ccc(O)cc4)CC[C@@H]32)N1` [compound 33, (6bR,10aS)-8-(3-(4-Hydroxyphenoxy)propyl)-6b,7,8,9,10,10a-hexahydro-1H-pyrido[3′,4′:4,5]pyrrolo-[1,2,3-de]quinoxalin-2(3H)-one], the inhibition at 0.1 µM was 11% in assay [1], 77% in assay [2], 41% in assay [3] and under 0% in assay [4] (setting [5]).

Consider `NC(=O)c1cc(F)ccc1OCCCN1CC[C@H]2[C@@H](C1)c1cccc3c1N2CC(=O)N3` [compound 38, 5-Fluoro-2-(3-((6bR,10aS)-2-oxo-2,3,6b,9,10,10a-hexahydro-1H-pyrido[3′,4′:4,5]pyrrolo[1,2,3-de]quinoxalin-8(7H)-yl)propoxy)benzamide], for which the inhibition at 0.1 µM was 9.6% in assay [1], 14% in assay [2], under 0% in assay [3] and under 0% in assay [4] (setting [5]).

For `O=C1CN2c3c(cccc3[C@@H]3CN(CCCOc4ccc(OCc5ccccc5)cc4)CC[C@@H]32)N1` [compound 35, (6bR,10aS)-8-(3-(4-(Benzyloxy)phenoxy)propyl)-6b,7,8,9,10,10a-hexahydro-1H-pyrido[3′,4′:4,5]-pyrrolo[1,2,3-de]quinoxalin-2(3H)-one], the inhibition at 0.1 µM turned out to be 68% in assay [1], 76% in assay [2], 23% in assay [3] and 4.6% in assay [4] (setting [5]).

Regarding `O=C1CN2c3c(cccc3[C@@H]3CN(CCCCOc4ccc(F)cc4)CC[C@@H]32)N1` [compound 50, (6bR,10aS)-8-(4-(4-Fluorophenoxy)butyl)-6b,7,8,9,10,10a-hexahydro-1H-pyrido[3′,4′:4,5]pyrrolo[1,2,3-de]quinoxalin-2(3H)-one], the inhibition at 0.1 µM in assay [1] is under 0%; in assay [2], 37%; in assay [3], 27%; in assay [4] (setting [5]) it was 5.4%.

Broadly, the pKi is the Ki on a negative log10 scale, so that one unit is a factor of ten. In the case of `O=C1CN2c3c(cccc3[C@@H]3CN(CCCc4noc5cc(F)ccc45)CC[C@@H]32)N1` [compound 26, (6bR,10aS)-8-(3-(6-Fluorobenzo[d]isoxazol-3-yl)propyl)-6b,7,8,9,10,10a-hexahydro-1H-pyrido[3′,4′:4,5]-pyrrolo[1,2,3-de]quinoxalin-2(3H)-one], the pKi was 8.51 in assay [2], 7.08 in assay [3] and 7.89 in assay [4]. The “fold weaker affinity to dopamine D2 receptors” value in assay [3] is “over 5 fold”.

In the case of `CCCCN1CC[C@H]2[C@@H](C1)c1cccc3c1N2CC(=O)N3` [compound 21, (6bR,10aS)-8-Butyl-6b,7,8,9,10,10a-hexahydro-1H-pyrido[3′,4′:4,5]pyrrolo[1,2,3-de]quinoxalin-2(3H)-one], the inhibition at 0.2 µM in assay [1] was under 0%. Also, the figures for the inhibition at 0.1 µM in assay [2], in assay [3] and in assay [4] (setting [5]) were under 0%, 15% and under 0%, respectively.

As for `O=C1CN2c3c(cccc3[C@@H]3CN(CCOc4ccc(F)cc4)CC[C@@H]32)N1` [compound 49, (6bR,10aS)-8-(2-(4-Fluorophenoxy)ethyl)-6b,7,8,9,10,10a-hexahydro-1H-pyrido[3′,4′:4,5]pyrrolo[1,2,3-de]quinoxalin-2(3H)-one], the inhibition at 0.1 µM is under 0% in assay [1], 48% in assay [2], 24% in assay [3] and 10% in assay [4] (setting [5]).

`O=C1CN2c3c(cccc3[C@@H]3CN(CCCOc4ccccc4F)CC[C@@H]32)N1` [compound 36, (6bR,10aS)-8-(3-(2-Fluorophenoxy)propyl)-6b,7,8,9,10,10a-hexahydro-1H-pyrido[3′,4′:4,5]pyrrolo[1,2,3-de]quinoxalin-2(3H)-one]: the inhibition at 0.1 µM in assay [1] stood at 5.1%; in assay [2] it was 87%; in assay [3], 28%; in assay [4] (setting [5]), 18%.

As to `O=C1CN2c3c(cccc3[C@H]3CN(CCCOc4ccc(F)cc4)CC[C@H]32)N1` [compound 54, (6bS,10aR)-8-(3-(4-Fluorophenoxy)propyl)-6b,7,8,9,10,10a-hexahydro-1H-pyrido[3′,4′:4,5]pyrrolo[1,2,3-de]quinoxalin-2(3H)-one], the inhibition at 0.1 µM in assay [1] was under 0%. Further, in assay [4], the “D1(Ki or (% Inhibition)): % inhibition” value is listed as 75 (50%) and the inhibition at 0.1 µM amounted to 50%.

On to `O=C1CN2c3c(cccc3[C@@H]3CN(CCCOc4cccc(F)c4)CC[C@@H]32)N1` [compound 37, (6bR,10aS)-8-(3-(3-Fluorophenoxy)propyl)-6b,7,8,9,10,10a-hexahydro-1H-pyrido[3′,4′:4,5]pyrrolo[1,2,3-de]quinoxalin-2(3H)-one], for which the inhibition at 0.1 µM in assay [1] was 7.7%; in assay [2], 78%; in assay [3], 14%; in assay [4] (setting [5]), 32%.

`O=C1CN2c3c(cccc3[C@@H]3CN(CCCc4n[nH]c5cc(F)ccc45)CC[C@@H]32)N1` [compound 24, (6bR,10aS)-8-(3-(6-Fluoro-1H-indazol-3-yl)propyl)-6b,7,8,9,10,10a-hexahydro-1H-pyrido[3′,4′:4,5]pyrrolo-[1,2,3-de]quinoxalin-2(3H)-one]: the pKi was 6.27 in assay [1], 8.59 in assay [2], 7.82 in assay [3] and 8.28 in assay [4].

For the compound `O=C1CN2c3c(cccc3[C@@H]3CN(CCCOc4ccc5c(c4)OCO5)CC[C@@H]32)N1` [compound 28, (6bR,10aS)-8-(3-(Benzo[d][1,3]dioxol-5-yloxy)propyl)-6b,7,8,9,10,10a-hexahydro-1H-pyrido[3′,4′:4,5]-pyrrolo[1,2,3-de]quinoxalin-2(3H)-one], the inhibition at 0.1 µM in assay [2] and in assay [4] (setting [5]) was under 0% each time.

For the compound `COc1ccc(OCCCN2CC[C@H]3[C@@H](C2)c2cccc4c2N3CC(=O)N4)cc1` [compound 34, (6bR,10aS)-8-(3-(4-Methoxyphenoxy)propyl)-6b,7,8,9,10,10a-hexahydro-1H-pyrido[3′,4′:4,5]pyrrolo-[1,2,3-de]quinoxalin-2(3H)-one], the inhibition at 0.1 µM in assay [1] was 10%; in assay [2] it was under 0%; in assay [4] (setting [5]), under 0%.

Regarding `O=C1CN2c3c(cccc3[C@@H]3CN(CCCOc4ccc(Br)cc4)CC[C@@H]32)N1` [compound 30, (6bR,10aS)-8-(3-(4-Bromophenoxy)propyl)-6b,7,8,9,10,10a-hexahydro-1H-pyrido[3′,4′:4,5]pyrrolo-[1,2,3-de]quinoxalin-2(3H)-one], the inhibition at 0.1 µM in assay [1] was 44%; in assay [2] it was 70%; in assay [3], 8.4%; in assay [4] (setting [5]), under 0%.

Turning to `Cc1ccc(OCCCN2CC[C@H]3[C@@H](C2)c2cccc4c2N3CC(=O)N4)cc1` [compound 32, (6bR,10aS)-8-(3-(p-Tolyloxy)propyl)-6b,7,8,9,10,10a-hexahydro-1H-pyrido[3′,4′:4,5]pyrrolo[1,2,3-de]-quinoxalin-2(3H)-one], the inhibition at 0.1 µM came out at 9.6% in assay [1], 62% in assay [2], 20% in assay [3] and 13% in assay [4] (setting [5]).

Consider `O=C1CN2c3c(cccc3[C@@H]3CN(CCCOc4ccc(F)cc4)CC[C@H]32)N1` (racemic) [compound 20, (±)-(trans)-8-(3-(4-Fluorophenoxy)propyl)-6b,7,8,9,10,10a-hexahydro-1H-pyrido[3′,4′:4,5]pyrrolo[1,2,3-de]quinoxalin-2(3H)-one], for which the figures for the inhibition at 0.1 µM in assay [1] and in assay [4] were under 0% and 79%, respectively. For the same compound, in assay [4], the “D1(Ki or (% Inhibition)): % inhibition” value is listed as 5.6 (79%).

As for `CN(CCCN1CC[C@H]2[C@@H](C1)c1cccc3c1N2CC(=O)N3)c1ccc(F)cc1` [compound 48, (6bR,10aS)-8-(3-((4-Fluorophenyl)(methyl)amino)propyl)-6b,7,8,9,10,10a-hexahydro-1H-pyrido[3′,4′:4,5]pyrrolo[1,2,3-de]quinoxalin-2(3H)-one], the inhibition at 0.2 µM in assay [1] stood at 53%. Besides, the inhibition at 0.1 µM in assay [2] is 76%; in assay [3], 14%; in assay [4] (setting [5]) it was 21%.

Source of the values: publication PMC11181336, “Discovery of ITI-333, a Novel Orally Bioavailable Molecule Targeting Multiple Receptors for the Treatment of Pain and Other Disorders” (Journal of Medicinal Chemistry, 2024).
